Here are results for one compound from patent US11466020B2, “Compounds and compositions for inhibition and elimination of Zika infection and uses for same” (Cornell University, priority 2017, dated 2022).

In one assay the test system is ZIKV MR766. The assay is described as follows: Inhibition of ZIKV infection of hNPCs (high content screen / inhibitory curve, ZIKV E staining). The assay is classed as cell-based, Zika virus. To be noted: 20 μM Merbromin, 72 h after ZIKV infection. How it is done: A high content chemical screen identifies compounds that inhibit ZIKV infection of hNPCs. To identify drugs that inhibit ZIKV infection, we screened the Prestwick library that includes 1120 FDA-approved drug and drug candidates, selected for known bioavailability and safety in humans. To perform the screen, hNPCs seeded in 384-well plates were treated with each compound from the library or vehicle control (DMSO) for 1 hour, followed by addition of ZIKV MR766 at a MOI=0.125. After two hour of inoculation with ZIKV, the virus-containing medium was replaced by fresh virus-free medium and compounds were replenished for each well (See Methods). After an additional three days of culture, cells were fixed and stained with antibodies against the ZIKV envelop protein (ZIKV E) and a cell proliferation marker Ki67 (FIG. 1A). The percentages of ZIKV E^+ cells, Ki67^+ cells and total cell number were quantified by an automated imaging and analysis system. A two dimensional analysis was performed to choose the primary hit compounds (FIG. 5A). The X-axis represents the fold change of total cell number, which was calculated by dividing the total cell number of the chemical-treated well by the average total cell number of DMSO-treated wells. The Y-axis represents the fold change of the percentage of ZIKV infected cells, which was calculated by dividing the percentage of cells expressing ZIKV E in each chemical-treated well by the average of the percentage of cells expressing ZIKV E from DMSO-treated wells. […] Based on the fold change of the percentage of ZIKV infection, the signal-to-basal (S/B) ratio is 4.2 and the coefficient of variation (CV) is 6.9%. The Z factor is 0.59 indicating a robust screening system.
hNPCs were plated on 96-well plates at 8.5×10^4/cm^2. After overnight incubation, hNPCs were infected with ZIKV (MR766 strain, MOI=0.125) for 2 h, and changed to virus-free medium. The cells were maintained in NPC medium with daily medium change. Three days later, the supernatant and cells were collected and used for assays. hESC-derived forebrain organoids were infected with ZIKV MR766 (5×10^5 PFU/ml) for 24 h. After removal of virus containing medium, forebrain organoids were maintained in forebrain organoid medium for an additional 3 or 17 days and then used for assays.
High-content Screen. hNPCs were dissociated and plated on Matrigel-coated 384-well plates for the chemical screen. […] DMSO was used as a negative control. ZIKV MR766 was added at MOI=0.125. After 2 hour infection, the supernatant was replaced with fresh medium and compounds from the same chemical library were added to the same wells. After an additional 3 days incubation, cells were fixed, stained with antibodies against ZIKV envelop protein (ZIKV E) and proliferation marker Ki67, and analyzed with the ImageXpress^MICRO Automated High-Content Analysis System. […] X-axis represents the fold change of total cell number, which was calculated by dividing the total cell number of the chemical treated well by the average of total cell number of DMSO treated wells. Y-axis represents the fold change of the percentage of ZIKV infection, which was calculated by dividing the percentage of ZIKV infection of the chemical treated well by the average of the percentage of ZIKV infection of DMSO treated wells. The compounds in which the fold change of total cell number >1 and the fold change of the percentage of ZIKV infection <20% were further evaluated. […]

A further assay relates to hNPCs. The assay is described as follows: hNPC viability, proliferation, apoptosis and identity. The following applies: 20 μM Merbromin, 72 h after ZIKV infection. The assay is classed as cell-based, human. As for the experimental part:
(A) Scheme of high content chemical screen. (B) Chemical structure of hit compounds. (C) Inhibitory curve and IC50 of HH or AQ on hNPCs (n=6). (D-H) Immunocytochemistry analysis (D), the quantification of the infection rate (E), the quantification of proliferation rate (F), the quantification of cell apoptosis rate (G) and the normalized cell viability (H) of hNPCs at 72 h after ZIKV (MR 766 strain) infection with or without drug treatment. Scale bars, 100 μm. The ZIKV infection rate is defined as the percentage of ZIKV E^+ cells. The proliferation rate is defined as the percentages of Ki67^+ cells. The cell apoptosis rate was defined as the percentage of cleaved-Caspase 3/CAS3^+ cells. The normalized cell viability was calculated by dividing the total cell number of each condition by the total cell number under mock infection conditions. (n=6). (I) qRT-PCR analysis to monitor the total ZIKV vRNA in the supernatant of hNPC cultures at 72 h after ZIKV infection with or without drug treatment. (J) Vero cell reinfection assay to monitor the ZIKV infectious particles in the supernatant of hNPC cultures with or without drug treatment. To perform the Vero cell reinfection assay, hNPCs at 72 h after ZIKV infection were washed three times and changed to drug free medium for an additional 24 h. Vero cells were infected with the supernatant collected from hNPCs for 2 h and changed to virus free medium for an additional 24 h. Vero cells were stained with antibody against ZIKV E and DAPI. Scale bars, 200 μm. (n=3). (K) Quantification of ZIKV infectious particles produced by ZIKV-infected hNPCs with or without compound treatment by the Vero cell reinfection assay. (L) Heatmap analysis of mock-infected hNPCs treated with DMSO (mock); mock infected hNPCs treated with 25 μM HH (HH), mock-infected hNPCs treated with 15 μM AQ (AQ), ZIKV (MR766 strain, MOI=0.125) infected hNPCs treated with DMSO (ZIKV+DMSO); ZIKV-infected hNPCs treated with 25 μM HH (ZIKV+HH), and ZIKV-infected hNPCs treated with 15 μM AQ (ZIKV+AQ). […] (M and N) Immunocytochemistry analysis (M) and quantification of the infection rate (N) of hNPCs at 72 h after ZIKV (PRVABC59 strain) infection with or without drug treatment (n=6). Scale bars, 100 μm. p values were calculated by one-way repeated measures ANOVA with a Bonferroni test for multiple comparisons. *p<0.05, **p<0.01 and ***p<0.001.
(A) Scheme to evaluate the elimination of ZIKV. At day 0, hNPCs were infected with ZIKV for 2 h. After removal of ZIKV infection medium, hNPCs were treated with drug candidates. At day 3, the culture medium was changed to fresh medium without compounds. The cells were maintained in drug-free culture until day 6 and used for immunohistochemistry and qRT-PCR. (B and C) Inhibitory curve and IC50 of HH calculated based on the infection rate (B) and normalized cell viability (C) (n=6). (D and E) Immunocytochemistry analysis (D) and the quantification of infection rate, cell apoptosis rate, and total cell number (E) of hNPCs on day 3 and day 6. Cells was fixed and stained with cleaved Caspase-3 (CAS3), ZIKV E and DAPI. Scale bars, 100 μm. (F) qRT-PCR analysis to monitor the total ZIKV vRNA in the supernatant of hNPC cultures on day 6. Scale bars, 200 μm. (n=3). (G) Vero cell reinfection assay to monitor the infective ZIKV vRNA in the supernatant of hNPC cultures at day 6 after ZIKV infection. Scale bars, 200 μm. (n=3). (H) Quantification of ZIKV infectious particles produced by ZIKV-infected hNPCs at day 6 by the Vero cell reinfection assay. (I) hNPCs with or without ZIKV infection treated with HH maintain hNPC marker expression and differentiation capacity. hNPCs with or without ZIKV MR766 infection were treated with 25 μM HH or DMSO for 3 days and then stained for SOX2, NESTIN and with DAPI. hNPCs with or without ZIKV infection and treated with HH or DMSO for 3 days were differentiated to cortical neurons. The cortical neurons were then fixed and stained for MAP2, TUJ1 and with DAPI. Scale bars, 100 μm. (n=3). […]

`O=C([O-])c1ccccc1-c1c2cc(Br)c(=O)cc-2oc2[c]([Hg+])c([O-])c(Br)cc12.[Na+].[Na+].[OH-]` [Merbromin]: the “ZIKV infection of hNPCs” value in the assay with ZIKV MR766 is “did not affect ZIKV infection”. Besides, in the assay with hNPCs, the “hNPC proliferation in ZIKV infected hNPCs” value was “significantly increased” and the “total cell loss in ZIKV infected hNPCs” value is listed as “rescued the total cell loss”.
